Experimental findings from patent EP3623369A1, “NOVEL MORPHOLINYL AMINE COMPOUNDS FOR THE TREATMENT OF AUTOIMMUNE DISEASE” (F. Hoffmann-La Roche AG, priority 2018, dated 2020) are described below.

The assay concerns the target T1, human TLR8 (Homo sapiens, UniProt Q9NR97).
T1 sequence (Q9NR97 27-1041): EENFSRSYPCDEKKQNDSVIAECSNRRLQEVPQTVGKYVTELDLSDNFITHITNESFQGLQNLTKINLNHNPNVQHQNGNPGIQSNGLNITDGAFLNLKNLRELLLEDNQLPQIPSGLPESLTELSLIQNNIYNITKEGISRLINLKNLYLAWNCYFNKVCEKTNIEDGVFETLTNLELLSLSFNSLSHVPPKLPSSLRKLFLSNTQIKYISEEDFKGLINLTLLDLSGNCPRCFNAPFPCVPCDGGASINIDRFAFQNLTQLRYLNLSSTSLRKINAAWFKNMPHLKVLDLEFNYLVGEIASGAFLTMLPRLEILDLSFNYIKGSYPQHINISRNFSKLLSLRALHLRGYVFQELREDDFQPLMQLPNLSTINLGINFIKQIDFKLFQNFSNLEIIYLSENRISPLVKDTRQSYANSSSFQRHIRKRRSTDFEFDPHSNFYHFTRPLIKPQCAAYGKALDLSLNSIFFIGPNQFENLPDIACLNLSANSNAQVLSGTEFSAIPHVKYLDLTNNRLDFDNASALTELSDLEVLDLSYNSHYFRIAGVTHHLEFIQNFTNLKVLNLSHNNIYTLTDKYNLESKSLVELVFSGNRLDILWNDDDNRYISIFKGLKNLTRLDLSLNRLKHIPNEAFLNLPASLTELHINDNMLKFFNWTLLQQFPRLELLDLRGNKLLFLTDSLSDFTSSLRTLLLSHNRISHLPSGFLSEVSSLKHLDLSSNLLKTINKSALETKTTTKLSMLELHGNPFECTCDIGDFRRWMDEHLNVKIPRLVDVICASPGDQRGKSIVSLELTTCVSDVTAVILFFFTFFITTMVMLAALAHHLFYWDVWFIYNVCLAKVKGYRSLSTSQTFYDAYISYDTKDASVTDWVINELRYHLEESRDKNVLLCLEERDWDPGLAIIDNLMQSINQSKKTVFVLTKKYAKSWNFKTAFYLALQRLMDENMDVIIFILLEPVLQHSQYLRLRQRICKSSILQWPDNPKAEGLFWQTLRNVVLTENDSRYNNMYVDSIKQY
Kind of assay: HEK293-Blue-hTLR-8 cells assay (SEAP reporter, R848 stimulation). The format is cell-based. The following applies: HEK293-Blue-hTLR8 cells, R848, 20 hrs; 0.003 is the lowest tested concentration; read-out: HEK/hTLR8 IC50. In a few lines:
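Antagonist mode: HEK293-Blue-hTLR8 cells at 250,000–450,000 cells/mL in DMEM with 10% FBS were treated with serially diluted compound (1% DMSO final) plus R848 (10 µL of 60 µM stock) for 20 h at 37 °C. NF-κB/AP-1-driven SEAP in supernatant measured with QUANTI-Blue, 2 h at 37 °C, absorbance 620–655 nm.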
In the case of `C[C@@H]1CN(c2ccc(C#N)c3ncccc23)C[C@H](CN2Cc3ccc(CN4CCCCC4)cc3C2)O1` [Example 74, 5-[(2R,6S)-2-methyl-6-[[5-(1-piperidylmethyl)isoindolin-2-yl]methyl]morpholin-4-yl]quinoline-8-carbonitrile], the IC50 was < 3 nM.
The same measure for `C[C@@H]1CN(c2ccc(C#N)c3nccnc23)C[C@H](CN2Cc3ccc(N4CCNCC4)cc3C2)O1` [Example 12, 8-[(2R,6S)-2-methyl-6-[(5-piperazin-1-ylisoindolin-2-yl)methyl]morpholin-4-yl]quinoxaline-5-carbonitrile]: < 3 nM.
For `CC1CNCCN1c1ccc2c(c1)CN(C[C@H]1CN(c3ccc(C#N)c4ncccc34)C[C@@H](C)O1)C2` (stereo partly drawn) [Example 78, 5-[(2R,6S)-2-methyl-6-[[5-(2-methylpiperazin-1-yl)isoindolin-2-yl]methyl]morpholin-4-yl] quinoline-8-carbonitrile], the IC50 was < 3 nM.
For `C[C@@H]1CN(c2ccc(C#N)c3ncccc23)C[C@H](CNCc2ccccc2)O1` [ER-886509, reference compound], the IC50 amounted to 139 nM.
On to `C[C@@H]1CN(c2ccc(C#N)c3ncsc23)C[C@H](CN2CCc3cc(N4CCNCC4)ccc3C2)O1` [Example 24, 7-[(2R,6S)-2-methyl-6-[(6-piperazin-1-yl-3,4-dihydro-1H-isoquinolin-2-yl)methyl]morpholin-4-yl]-1,3-benzothiazole-4-carbonitrile], for which the IC50 is 4 nM.
Regarding `C[C@@H]1CN(c2ccc3c(c2)CN(C[C@H]2CN(c4ccc(C#N)c5ncccc45)C[C@@H](C)O2)C3)C[C@H](C)N1` [Example 71, 5-[(2R,6S)-2-methyl-6-[[5-[(3R,5S)-3,5-dimethylpiperazin-1-yl]isoindolin-2-yl]methyl]morpholin-4-yl]quinoline-8-carbonitrile], the IC50 came to 6 nM.
As for `C[C@@H]1CN(c2ccc(C#N)c3ncccc23)C[C@H](CN2Cc3ccc(N4CC5(CNC5)C4)cc3C2)O1` [Example 47, 5-[(2S,6R)-2-[[5-(2,6-diazaspiro[3.3]heptan-2-yl)isoindolin-2-yl]methyl]-6-methyl-morpholin-4-yl]quinoline-8-carbonitrile], the IC50 is 23 nM.
`C[C@@H]1CN(c2ccc(C#N)c3nccnc23)C[C@H](CNCc2ccc(N3CCNCC3)cc2)O1` [Example 84, 8-[(2R,6S)-2-methyl-6-[[(4-piperazin-1-ylphenyl)methylamino]methyl]morpholin-4-yl]quinoxaline-5-carbonitrile]: the IC50 amounted to 22 nM.
With `CC1c2ccc(N3CCNCC3)cc2CN1C[C@H]1CN(c2ccc(C#N)c3ncccc23)C[C@@H](C)O1` (stereo partly drawn) [Example 48, 5-[(2R,6S)-2-methyl-6-[(1-methyl-5-piperazin-1-yl-isoindolin-2-yl)methyl]morpholin-4-yl]quinoline-8-carbonitrile], the IC50 was determined as 18 nM.
Take `C[C@@H]1CN(c2ccc(C#N)n3nccc23)C[C@H](CN2Cc3ccc(N4CCN(C)CC4)cc3C2)O1` [Example 17, 4-[(2R,6S)-2-methyl-6-[[5-(4-methylpiperazin-1-yl)isoindolin-2-yl]methyl]morpholin-4-yl]pyrazolo[1,5-a]pyridine-7-carbonitrile]: the IC50 was 52 nM.
